Laboratory results as given in patent publication US6399629B1, “Efflux pump inhibitors” (priority 1998, dated 2002).
Counter-ions that a name gives are not always drawn.

How the values were obtained:
[1] = tested on: Pseudomonas aeruginosa PAM1001; assay: microbe, parasite or virus in culture; assay type: cell-based; settings: for Inhibition (%) of growth of P. aeruginosa PAM1001: Levofloxacin 0.25 μg/mL
Method: For compounds labeled with the prefix ‘D’, potentiation is measured by inhibition of growth of Pseudomonas aeruginosa PAM1001 at varying concentrations of efflux pump inhibitors (EPIs) in the presence of levofloxacin (0.25 microg/mL). Bacteria are grown in Mueller Hinton Broth (MHB, Difco) with an initial inoculum of 1×10^6 CFU/mL. Kinetics of bacterial growth is monitored, during 18 h of incubation at 37° C., by measurement of the culture absorbance at 650 nm using a 96-well plate spectrophotometer (SpectraMax, Molecular Devices). The inhibitory effect of EPIs is expressed as a percentage of growth inhibition compared to a control bacterial culture grown in the presence of 0.25 microg/mL levofloxacin but without EPIs.

[2] = tested on: Pseudomonas aeruginosa PAM1001; assay: checkerboard assay (broth microdilution): levofloxacin MIC in presence of efflux pump inhibitor; assay type: cell-based
How it was run: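 Checkerboard broth microdilution in Mueller Hinton Broth against P. aeruginosa PAM1001 (5×10^5 CFU/mL, early-log inoculum), levofloxacin and efflux pump inhibitor (up to 40 μg/mL) diluted along crossing axes. Plates incubated 20 h at 35° C; growth read at 650 nm and visually. Potentiation scored as reduced levofloxacin MIC.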

[3] = Pseudomonas aeruginosa, PAM1001, read-out: Inhibition (%) of growth of P. aeruginosa PAM1001

Compound | inhibition at 2.5 µg/mL [1, 3] | inhibition at 5 µg/mL [1, 3] | inhibition at 10 µg/mL [1, 3] | inhibition at 20 µg/mL [1, 3] | inhibition at 40 µg/mL [1, 3] | Inhibition (%) of growth of P. aeruginosa PAM1001 ([1]; Concentration of Compound 2.5 μg/mL) | Inhibition (%) of growth of P. aeruginosa PAM1001 ([1]; Concentration of Compound 5 μg/mL) | Inhibition (%) of growth of P. aeruginosa PAM1001 ([1]; Concentration of Compound 10 μg/mL) | Inhibition (%) of growth of P. aeruginosa PAM1001 ([1]; Concentration of Compound 20 μg/mL) | Inhibition (%) of growth of P. aeruginosa PAM1001 ([1]; Concentration of Compound 40 μg/mL) | Levofloxacin MIC Against P. aerugiuosa PAM1001 in Presence of Efflux Pump Inhibitor (EPI), Minimum Inhibitory Concentration ([2]; EPI Conc. 0 μg/mL) | Levofloxacin MIC Against P. aerugiuosa PAM1001 in Presence of Efflux Pump Inhibitor (EPI), Minimum Inhibitory Concentration ([2]; EPI Conc. 0.625 μg/mL) | Levofloxacin MIC Against P. aerugiuosa PAM1001 in Presence of Efflux Pump Inhibitor (EPI), Minimum Inhibitory Concentration ([2]; EPI Conc. 1.25 μg/mL) | Levofloxacin MIC Against P. aerugiuosa PAM1001 in Presence of Efflux Pump Inhibitor (EPI), Minimum Inhibitory Concentration ([2]; EPI Conc. 2.5 μg/mL) | Levofloxacin MIC Against P. aerugiuosa PAM1001 in Presence of Efflux Pump Inhibitor (EPI), Minimum Inhibitory Concentration ([2]; EPI Conc. 5 μg/ mL) | Levofloxacin MIC Against P. aerugiuosa PAM1001 in Presence of Efflux Pump Inhibitor (EPI), Minimum Inhibitory Concentration ([2]; EPI Conc. 10 μg/mL) | Levofloxacin MIC Against P. aerugiuosa PAM1001 in Presence of Efflux Pump Inhibitor (EPI), Minimum Inhibitory Concentration ([2]; EPI Conc. 20 μg/mL) | Levofloxacin MIC Against P. aerugiuosa PAM1001 in Presence of Efflux Pump Inhibitor (EPI), Minimum Inhibitory Concentration ([2]; EPI Conc. 40 μg/mL)
Cc1cc(NC(=O)[C@@H](CCc2ccccc2)NC(=O)[C@@H]2C[C@@H](NC(=O)CN)CN2)ccc1Cl [Compound D206, trans-4-Glycylamino-L-Prolyl-D-Homophenylalanine 4-Chloro-3-Methylphenylamide Dihydrochloride] | 16% | 10% | 100% | 99% | 100% |  |  |  |  |  |  |  |  |  |  |  |  | 
Cl.Cl.Cl.NCC(=O)NC1CNC(C(=O)Nc2cccc(NC(=O)CCc3ccccc3)n2)C1 [Compound D702, 2-(trans-4-Glycylamino-L-Prolylamino)-6-(4-Phenylpropanoylamino)Pyridine Trihydrochloride] |  |  |  |  |  | 19% | 15% | 82% | 100% | 100% |  |  |  |  |  |  |  | 
NCC(=O)N[C@@H]1CN[C@@H](C(=O)NC(Cc2ccccc2)C(=O)Nc2cnc3ccccc3c2)C1 (stereo partly drawn) [Compound M41, (2R,4S0-4-(2-Aminoacetamideo)-N-(2-phenylethyl)-N-(3-quinolylcarbamoyl)ethyl]-2-pyrrolidinecarboxamide] |  |  |  |  |  |  |  |  |  |  | 4 µg/mL | 4 µg/mL | 2 µg/mL | 2 µg/mL | 0.25 µg/mL | 0.008 µg/mL | 0.008 µg/mL | 0.008 µg/mL
NCC(=O)N[C@H]1CN[C@H](C(=O)N[C@@H](CCc2ccccc2)c2nc3ccccc3[nH]2)C1 [Compound M78] |  |  |  |  |  |  |  |  |  |  | 4 µg/mL | 4 µg/mL | 4 µg/mL | 4 µg/mL | 4 µg/mL | 2 µg/mL | 1 µg/mL | 0.125 µg/mL
CC(C)(C)c1ccc2nc(CNC(=O)[C@@H]3C[C@@H](NC(=O)CN)CN3)[nH]c2c1 [Compound M81] |  |  |  |  |  |  |  |  |  |  | 4 µg/mL | 4 µg/mL | 4 µg/mL | 4 µg/mL | 2 µg/mL | 1 µg/mL | 0.25 µg/mL | 0.03 µg/mL
CCc1ccc2ncc(NC(=O)[C@@H](Cc3ccc(O)cc3)NC(=O)[C@H]3C[C@H](CN)CN3)cc2c1 [Compound M25, (2R,4R)-4-(Amiomethyl)-N-[(1R)-2-(4-hydroxyphenyl)-1-(6-ethyl-3-quinolylcarbamoyl)ethyl]-2-pyrrolidinecarboxamide] |  |  |  |  |  |  |  |  |  |  | 4 µg/mL | 4 µg/mL | 4 µg/mL | 4 µg/mL | 4 µg/mL | 0.5 µg/mL | 0.015 µg/mL | 
(2S,4R)-4-(Aminompropionamido)-N-[(1R)-3-phenyl-1-(3-quinolylcarbamolyl)propyl]-2-pyrrolidinecarboxamide [Compound M5] |  |  |  |  |  |  |  |  |  |  | 4 µg/mL | 4 µg/mL | 4 µg/mL | 4 µg/mL | 2 µg/mL | 2 µg/mL | 0.50 µg/mL | 0.008 µg/mL
NCCCC1CN[C@H](C(=O)N[C@H](CCc2ccccc2)C(=O)Nc2cnc3ccccc3c2)C1 (mixture of isomers) [Compound M93, (2S,4RS)-4-(3-Aminopropyl)-N-[(1R)-3-phenyl-1-(3-quiolylcarbamoyl)propyl]-2-pyrrolidinecarboxamide] |  |  |  |  |  |  |  |  |  |  | 4 µg/mL | 4 µg/mL | 2 µg/mL | 0.25 µg/mL | 0.125 µg/mL | 0.015 µg/mL | 0.015 µg/mL | 0.008 µg/mL
CN(C(=O)[C@@H]1C[C@@H](NC(=O)CN)CN1)[C@H](CCc1ccccc1)C(=O)Nc1cnc2ccccc2c1 [Compound M15, (2S,4R)-4-(2-Aminoacetamido)-N-methyl-N-[(1R)-3-phenyl-1-(3-quinolylcarbamoyl)propyl]-2-pyrrolidiecarboxamide] |  |  |  |  |  |  |  |  |  |  | 4 µg/mL | 4 µg/mL | 4 µg/mL | 4 µg/mL | 4 µg/mL | 1 µg/mL | 0.06 µg/mL | 0.015 µg/mL
(2R,4R)-4-(Aminomethyl)-N-(2-phenylethyl)-N-(3-quinolylcarbamoyl)ethyl]-2-pyrrolidinecarboxamide [Compound M45] |  |  |  |  |  |  |  |  |  |  | 4 µg/mL | 4 µg/mL | 4 µg/mL | 1 µg/mL | 0.50 µg/mL | 0.03 µg/mL | 0.015 µg/mL | 0.015 µg/mL
CC(C)CC(NC(=O)C1CC(CN)CN1)C(=O)Nc1cnc2ccccc2c1 [Compound M13, (2R,4R)-4-(Aminomethyl)-N-[(1R)-3-methyl-1-quinolylcarbanioyl)bulyl]-2-pyrrolidinecarboxamide] |  |  |  |  |  |  |  |  |  |  | 4 µg/mL | 4 µg/mL | 4 µg/mL | 2 µg/mL | 1 µg/mL | 0.06 µg/mL | 0.06 µg/mL | 0.06 µg/mL
